What was measured:
Assay in all cases: area under concentration-response curve (viability) (AUC (a.u.)); higher = less active
Conditions in all cases: 48 h
CU-ACC2 = tested on: CU-ACC2
How it was run: (§1)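 AC50 and area under the curve values derive from fitted concentration-response curves, restricted to inhibitory or non-responding curve classes. The curves came from three adrenocortical carcinoma cell lines in 1,536-well plates, each receiving 23 nL of every library compound at 11 concentrations. Viability was read by CellTiter-Glo luminescence after 48 h, normalised per plate to vehicle and empty-well controls.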

NCI-H295R = tested on: NCI-H295R
How it was run: as §1

CU-ACC1 = tested on: CU-ACC1
How it was run: as §1

| SMILES | area under concentration-response curve (CU-ACC2) | area under concentration-response curve (NCI-H295R) | area under concentration-response curve (CU-ACC1) |
| --- | --- | --- | --- |
| Nc1nccn2c1c(-c1cc3cccc(Cl)c3[nH]1)nc2[C@H]1CC[C@H](C(=O)O)CC1 | 589 | 536 | 498 |
| CCN1\C=C(C(O)=O)/C(=O)C2=C1C(=C(N3CCNC(C)C3)C(=C2)F)F (stereo not given) | 674 | 605 | 577 |
| OC[C@H]1O[C@@H](OC2=CC3=C(C=C2)C(=O)\C(=C/O3)C4=CC=C(O)C=C4)[C@H](O)[C@@H](O)[C@@H]1O | 591 | 576 | 551 |
| C[C@@H]1[C@H]\2[C@H](O)[C@H]3[C@H](N(C)C)\C(=C(C(N)=O)/C(=O)[C@@]3(O)\C(=C2C(=O)C4=C(O)C=CC=C14)O)O | 325 | 403 | 406 |
| Cc1c(Cl)cccc1[S+](=O)([O-])Nc1nc(CCN2CCOCC2=O)cs1 | 583 | 520 | 483 |
| CC(C)(O)C(=O)Nc1ccc([N+](=O)[O-])c(C(F)(F)F)c1 | 602 | 537 | 505 |
| O=C([O-])C(O)Cc1ccc(O)c(O)c1 (stereo not given) | 589 | 553 | 460 |
| COc1cc2cc(c1Cl)N(C)C(=O)C[C@H](OC(=O)C(C)C)[C@]1(C)O[C@@H]1[C@H](C)[C@@H]1C[C@@](O)(NC(=O)O1)[C@H](OC)/C=C/C=C(\C)C2 | 440 | 346 | 505 |
| CC(C)=CCC/C(C)=C/CC/C(C)=C/CSc1ccccc1C(=O)O | 598 | 540 | 527 |
| COc1cc2ncn(-c3cc(OCc4ccccc4C(F)(F)F)c(C(N)=O)s3)c2cc1OC | 606 | 506 | 515 |
| CC(C)[C@H]1C(=O)N[C@H](CO)Cc2c[nH]c3cccc(c23)N1C | 539 | 575 | 384 |
| FC(F)(F)c1ccc(/C=C/c2nc(COc3ccc(CCCCn4ccnn4)cc3)co2)cc1 | 596 | 531 | 265 |
| CN1CCN(c2ccc(OC(F)(F)F)c(Nc3ncc4c(n3)-c3c(c(C(N)=O)nn3CCO)CC4)c2)CC1 | 587 | 460 | 498 |
| Cn1c(CNc2ccc(C(=N)N)cc2)nc2cc(C(=O)N(CCC(=O)O)c3ccccn3)ccc21 | 929 | 834 | 715 |
| O=c1sn(-c2cccc3ccccc23)c(=O)n1Cc1ccccc1 | 501 | 433 | 462 |
| C[C@H](CCC(=O)O)[C@H]1CC[C@H]2[C@@H]3[C@@H](O)C[C@@H]4C[C@H](O)CC[C@]4(C)[C@H]3CC[C@]12C | 496 | 538 | 519 |
| N[C@@H](CCC(=O)O)C(=O)N[C@@H](Cc1c[nH]c2ccccc12)C(=O)O | 584 | 519 | 493 |
| Cn1c(=O)c2c(ncn2CC(O)CO)n(C)c1=O (stereo not given) | 531 | 483 | 437 |

| SMILES | area under concentration-response curve (CU-ACC2) | area under concentration-response curve (NCI-H295R) | area under concentration-response curve (CU-ACC1) |
| --- | --- | --- | --- |
| CN1\C(=C(\O)C2=C(C=CS2)[S+]1([O-])=O)C(=O)NC3=CC=CC=N3 | 616 | 573 | 548 |
| NCC1(CC(=O)O)CCCCC1 | 403 | 412 | 315 |
| Nc1ncnc2c1ncn2[C@@H]1O[C@H](CO)[C@@H](O)[C@H]1O | 506 | 470 | 463 |
| CCC(C)(Oc1ccc(C2(c3ccc(OC(C)(CC)C(=O)O)cc3)CCCCC2)cc1)C(=O)O (stereo not given) | 572 | 470 | 500 |
| NCCCC(N)(C(=O)O)C(F)F (stereo not given) | 514 | 491 | 443 |
| C#CCN(C)[C@H](C)Cc1ccccc1 | 457 | 434 | 467 |
| NCCc1ccc(O)c(O)c1 | 586 | 478 | 506 |
| Cc1oncc1C(=O)Nc1ccc(C(F)(F)F)cc1 | 498 | 481 | 421 |
| NC[C@H]1CC[C@H](C(=O)O)CC1 | 586 | 452 | 497 |
| CC1=C(C)C\2=C(S1)[N]3C(=NN=C3[C@H](CC(N)=O)\N=C2C4=CC=C(Cl)C=C4)C | 538 | 452 | 516 |
| OC[C@H]1OCC(O1)[N@@]2C=CC(N)=NC2=O (stereo not given in full) | 451 | 494 | 423 |
| O=C1Cc2cc(C(=O)NC3C[C@H]4CC[C@@H](C3)N4[S+](=O)([O-])CC3CCN(CCCC(F)(F)F)CC3)c(Cl)cc2N1 (stereo not given in full) | 611 | 539 | 525 |
| COc1ccc([C@@H]2CC(=O)c3c(O)cc(O[C@@H]4O[C@H](CO[C@@H]5O[C@@H](C)[C@H](O)[C@@H](O)[C@H]5O)[C@@H](O)[C@H](O)[C@H]4O)cc3O2)cc1O | 593 | 547 | 480 |
| C[C@H]1CNCCCN1[S+](=O)([O-])c1cccc2cncc(F)c12 | 589 | 551 | 530 |
| C[S+](=O)([O-])c1ccc(Oc2cc(F)cc(C#N)c2)c2c1[C@H](O)C(F)(F)C2 | 645 | 603 | 571 |
| CC(C)[C@H](CO)Nc1nc(Nc2ccc(C(=O)O)c(Cl)c2)c2ncn(C(C)C)c2n1 | 626 | 594 | 529 |
| O=C1[C@H](CC[C@H](O)c2ccc(F)cc2)[C@@H](c2ccc(O)cc2)N1c1ccc(F)cc1 | 650 | 565 | 536 |
